Test results as given in patent US10710997B2, “Isoquinoline amide and isoquinoline amide-substituted compounds as mGluR4 allosteric potentiators, compositions, and methods of treating neurological dysfunction” (Vanderbilt University, priority 2016, dated 2020).

How the values were obtained:
[1] = biological target: T1, human mGluR4 (Homo sapiens, UniProt Q14833); assay: human mGluR4 potentiation assay, CHO cells transfected with human mGluR4, Ca2+-sensitive dye; type: cell-based; conditions: human mGlu4; read-out: hmGlu4 EC50
T1 construct: expressed in transfected cells; host or cells: CHO cells
Protocol: The disclosed compounds and compositions can be evaluated for their ability to act as a potentiator of metabotropic glutamate receptor activity, in particular mGluR4 activity, by any suitable known methodology known in the art. For example, Chinese Hamster Ovary (CHO) cells transfected with human mGluR4 or HEK cells co-transfected with rat mGluR4 and the G-protein regulated Inwardly Rectifying Potassium channel (GIRK) were plated in clear bottom assay plates for assay in a Hamamatsu FDSS Fluorometric Plate Reader. The cells were loaded with either a Ca2+-sensitive fluorescent dye or the thallium responsive dye and the plates were washed and placed into a suitable kinetic plate reader. For human mGluR4 assays, a fluorescence baseline was established for 3-5 seconds, the disclosed compounds were then added to the cells, and the response in cells was measured. Approximately two and a half minutes later, a concentration of mGluR4 orthosteric agonist (e.g. glutamate or L-AP4) eliciting approximately 20% (EC20) of the maximal agonist response was added to the cells, and the response was measured. Two minutes later, a concentration of mGluR4 agonist (e.g. glutamate or L-AP4) eliciting 80% (EC80) of the maximal agonist response was added to the cells, and the response was measured. For rat mGluR4/GIRK experiments, a baseline was established for approximately five seconds, disclosed compounds were added, and either an EC20 or EC80 concentration of agonist was added approximately two and one half minutes later. Potentiation of the agonist response of mGluR4 by the disclosed compounds was observed as an increase in response to the EC20 concentration of agonist in the presence of compound compared to the response to agonist in the absence of compound. Similarly, antagonism of the agonist response of mGluR4 by the disclosed compounds was observed as a decrease in response to the EC80 concentration of agonist in the presence of compound compared to the response to agonist in the absence of compound.
The above described assay operated in two modes. In the first mode, a range of concentrations of the disclosed compounds are added to cells, followed by a single fixed concentration of agonist. If the compound acts as a potentiatior, an EC50 value for potentiation and a maximum extent of potentiation by the compound at this concentration of agonist is determined by non-linear curve fitting. If the compound acts as a noncompetitive antagonist, an IC50 value is determined by non-linear curve fitting. In the second mode, several fixed concentrations of the disclosed compounds are added to various wells on a plate, followed by a range in concentrations of agonist for each concentration of disclosed compound. The EC50 values for the agonist at each concentration of compound are determined by non-linear curve fitting. A decrease in the EC50 value of the agonist with increasing concentrations of the sample compound (a leftward shift of the agonist concentration-response curve) is an indication of the degree of mGluR4 potentiation at a given concentration of the sample compound. A decrease in the maximal response of the agonist with increasing concentrations of the sample compounds, with or without a rightward shift in agonist potency, is an indication of the degree of noncompetitive antagonism at mGluR4. The second mode also indicates whether the sample compounds also affect the maximum response to mGluR4 to agonists.

[2] = in vitro DMPK: human intrinsic and predicted hepatic clearance; type: in vitro ADME; conditions: for Human CLINT: in vitro, unit assumed; for Human CLHEP: predicted human clearance, human hepatic blood flow 20 mL/min/kg
From the text: (§1) As the only drug that interact with mGlu4 is free drug, the compounds of the present invention have unexpectedly exceptional profiles as putative drug candidates.

[3] = in vitro DMPK: rat intrinsic and predicted hepatic clearance; type: in vitro ADME; conditions: for Rat CLINT: in vitro, unit assumed; for Rat CLHEP: predicted
From the text: as §1

[4] = free drug level (fu) in human plasma; type: in vitro ADME
From the text: as §1

[5] = free drug level (fu) in rat plasma; type: in vitro ADME
From the text: as §1

[6] = rat brain homogenate binding (BHB); type: in vitro ADME; conditions: read-out: Rat BHB fu
From the text: as §1

[7] = biological target: mGlu4 (UniProt Q14833); conditions: read-out: mGlu4 PAM EC50

T1 sequence (Q14833 33-912): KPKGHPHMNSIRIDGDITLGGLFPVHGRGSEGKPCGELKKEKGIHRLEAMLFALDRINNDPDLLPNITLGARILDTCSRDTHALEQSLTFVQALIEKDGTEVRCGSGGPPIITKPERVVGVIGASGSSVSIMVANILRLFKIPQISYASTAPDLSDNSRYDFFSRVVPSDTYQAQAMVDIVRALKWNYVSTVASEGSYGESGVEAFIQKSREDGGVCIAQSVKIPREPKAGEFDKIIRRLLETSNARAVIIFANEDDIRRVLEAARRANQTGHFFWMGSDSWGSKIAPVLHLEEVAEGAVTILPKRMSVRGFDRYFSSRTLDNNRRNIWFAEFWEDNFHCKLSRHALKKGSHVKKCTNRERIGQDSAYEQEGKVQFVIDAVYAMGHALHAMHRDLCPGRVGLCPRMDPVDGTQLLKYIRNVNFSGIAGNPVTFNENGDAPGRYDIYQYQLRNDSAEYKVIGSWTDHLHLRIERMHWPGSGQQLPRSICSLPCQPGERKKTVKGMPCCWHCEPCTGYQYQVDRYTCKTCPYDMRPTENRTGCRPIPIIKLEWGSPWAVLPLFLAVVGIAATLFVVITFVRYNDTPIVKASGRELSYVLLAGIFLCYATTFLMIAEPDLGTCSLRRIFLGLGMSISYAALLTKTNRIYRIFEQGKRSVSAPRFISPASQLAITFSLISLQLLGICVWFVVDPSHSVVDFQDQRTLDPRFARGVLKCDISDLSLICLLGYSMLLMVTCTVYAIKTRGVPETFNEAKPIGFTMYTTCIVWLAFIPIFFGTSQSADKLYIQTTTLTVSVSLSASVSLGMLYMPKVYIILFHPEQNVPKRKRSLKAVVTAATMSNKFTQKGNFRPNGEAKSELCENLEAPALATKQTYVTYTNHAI

Structure (SMILES)	EC50 [1]	Human CLINT [2]	Human CLHEP [2]	Rat CLINT [3]	Rat CLHEP [3]	fraction unbound [4]	fraction unbound [5]	fraction unbound [6]	EC50 [7]
O=C(c1nccc2cc(Nc3n[nH]c4ncccc34)ccc12)N1CCC(F)(F)CC1 [Example 28]	0.511 µM	83.4 mL/min/kg	16.8 mL/min/kg	328 mL/min/kg	57.7 mL/min/kg	0.218	0.179	0.028	–
CS(=O)(=O)N1CCN(C(=O)c2nccc3cc(Nc4n[nH]c5cccnc45)ccc23)CC1 [Example 6]	0.268 µM	7.44 mL/min/kg	5.49 mL/min/kg	230 mL/min/kg	53.7 mL/min/kg	0.134	0.328	0.085	–
O=C(c1nccc2cc(Nc3n[nH]c4cccnc34)ccc12)N1CCC(F)(F)CC1 [Example 7]	0.0577 µM	87.4 mL/min/kg	16.9 mL/min/kg	568 mL/min/kg	62.3 mL/min/kg	0.094	0.168	0.055	–
O=C(c1nccc2cc(Nc3n[nH]c4cccnc34)ccc12)N1CC[C@H](F)C1 [Example 5]	0.366 µM	6.91 mL/min/kg	5.20 mL/min/kg	32.5 mL/min/kg	22.2 mL/min/kg	0.094	0.327	0.095	–
CN(C(=O)c1nccc2cc(Nc3n[nH]c4ncccc34)ccc12)C1CC(F)C1 (centres unmarked) [Compound 22]	–	–	–	–	–	–	–	–	1.8 µM
O=C(NC1CC(F)(F)C1)c1nccc2cc(Nc3n[nH]c4ncccc34)ccc12 [Example 27]	0.0562 µM	7.64 mL/min/kg	5.60 mL/min/kg	37 mL/min/kg	24.2 mL/min/kg	0.073	0.075	0.009	–
CN(C(=O)c1nccc2cc(Nc3n[nH]c4ncccc34)ccc12)C1CC(F)(F)C1 [Compound 24]	–	–	–	–	–	–	–	–	1.24 µM
CN(C(=O)c1nccc2cc(Nc3n[nH]c4cccnc34)ccc12)C1CC(F)C1 (centres unmarked) [Compound 20]	–	–	–	–	–	–	–	–	0.546 µM
O=C(NC1CC(F)C1)c1nccc2cc(Nc3n[nH]c4cccnc34)ccc12 (centres unmarked) [Example 8]	0.021 µM	6.61 mL/min/kg	5.03 mL/min/kg	32.4 mL/min/kg	22.2 mL/min/kg	0.11	0.107	0.02	–
CN(C(=O)c1nccc2cc(Nc3n[nH]c4ncccc34)ccc12)C1CCOC1 (centres unmarked) [Compound 25]	–	–	–	–	–	–	–	–	4.37 µM
COC1CC(NC(=O)c2nccc3cc(Nc4n[nH]c5cccnc45)ccc23)C1 (centres unmarked) [Example 10]	0.0255 µM	10.2 mL/min/kg	6.86 mL/min/kg	26.7 mL/min/kg	19.3 mL/min/kg	0.059	0.089	0.082	–
CN(C(=O)c1nccc2cc(Nc3n[nH]c4cccnc34)ccc12)C1CC(F)(F)C1 [Compound 23]	–	–	–	–	–	–	–	–	0.339 µM
O=C(NC1CC(F)(F)C1)c1nccc2cc(Nc3n[nH]c4cccnc34)ccc12 [Example 9]	0.00991 µM	9.01 mL/min/kg	6.30 mL/min/kg	32.8 mL/min/kg	22.3 mL/min/kg	0.09	0.076	0.01	–
CN(C(=O)c1nccc2cc(Nc3n[nH]c4cccnc34)ccc12)C1CCOC1 (centres unmarked) [Compound 26]	–	–	–	–	–	–	–	–	1.85 µM
O=C(NC1CCOC1)c1nccc2cc(Nc3n[nH]c4cccnc34)ccc12 (centres unmarked) [Example 11]	0.0599 µM	0.63 mL/min/kg	0.61 mL/min/kg	2.82 mL/min/kg	2.71 mL/min/kg	0.188	0.229	0.068	–
O=C(c1nccc2cc(Nc3n[nH]c4cccnc34)ccc12)N1CCCC(F)(F)C1 [Example 4]	0.117 µM	172 mL/min/kg	18.7 mL/min/kg	885 mL/min/kg	64.9 mL/min/kg	0.015	0.158	0.05	–
